This is an account of results in paper PMC7816042, “Insights into the Structure-Activity Relationship of Glycosides as Positive Allosteric Modulators Acting on P2X7 Receptors” (Molecular Pharmacology, 2021).

Structures are written as SMILES. Values joined by “and” are separate entries in the source; they are usually repeats but may differ in a detail not shown here. Equal values may be shown once.

The test addresses T1, human P2X7 (Homo sapiens, UniProt Q99572).
T1 construct: expressed in transfected cells
T1 sequence (Q99572 1-595): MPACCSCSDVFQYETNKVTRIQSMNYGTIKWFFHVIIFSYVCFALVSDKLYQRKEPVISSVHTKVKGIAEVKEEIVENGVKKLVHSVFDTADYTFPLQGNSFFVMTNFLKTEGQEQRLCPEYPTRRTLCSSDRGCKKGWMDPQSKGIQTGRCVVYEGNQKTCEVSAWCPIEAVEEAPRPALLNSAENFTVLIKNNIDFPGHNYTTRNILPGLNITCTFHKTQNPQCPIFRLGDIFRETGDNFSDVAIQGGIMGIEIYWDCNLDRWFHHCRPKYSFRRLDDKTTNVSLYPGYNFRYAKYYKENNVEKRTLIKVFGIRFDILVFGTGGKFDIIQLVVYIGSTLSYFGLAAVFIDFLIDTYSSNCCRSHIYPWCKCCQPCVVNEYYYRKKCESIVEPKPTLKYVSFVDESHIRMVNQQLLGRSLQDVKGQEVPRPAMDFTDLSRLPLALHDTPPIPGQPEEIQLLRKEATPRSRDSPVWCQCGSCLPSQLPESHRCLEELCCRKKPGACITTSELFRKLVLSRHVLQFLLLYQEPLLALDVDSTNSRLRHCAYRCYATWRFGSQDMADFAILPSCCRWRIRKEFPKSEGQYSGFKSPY
Put plainly: YO-PRO-1 dye uptake assay in HEK-hP2X7 cells. It counts as cell-based. Conditions: 10 µM glycoside; for PAM effect on ATP dose-response curve: HEK-hP2X7, result in words; for EC50 ratio: average EC50 for ATP + vehicle of each set of experiments used; for Maximum response (fold increase): maximum response defined at 1 mM ATP; for ATP-induced YO-PRO-1 response in fixed-concentration screen: 200 µM ATP, compared with ATP + DMSO. On the procedure:
ATP-induced dye uptake experiments were performed as described previously ([Bidula et al., 2019b]). Briefly, HEK-hP2X7 cells were plated at 2 × 10^4 cells per well (100 μl per well) in complete medium and left overnight to attach to poly-D-lysine–coated 96-well plates. YO-PRO-1 iodide was prepared in a low divalent buffered solution ([…], 2 mM KCl, 13 mM D-glucose, 10 mM HEPES, 0.2 mM CaCl2 pH 7.3) to a final concentration of 2 μM. Medium was removed from the plate using a manual multichannel pipette and YO-PRO-1 containing buffer applied to wells (180 μl per well). […] A Flexstation 3 plate reader (Molecular Devices, Sunnyvale, CA) was used to record YO-PRO-1 fluorescence in HEK-hP2X7 for 300 seconds after the addition of ATP (at 10× final concentration) with/without ginsenoside compounds or vehicle (DMSO). Plates were allowed to warm up to 37°C for 10 minutes before initiating the recording. Baseline recordings were made for 40 seconds before compound addition using the Flexstation 3 fluidics system. YO-PRO-1 fluorescence was measured at 520 nm after excitation at 490 nm (auto cutoff at 495 nm), and the sample interval was 3.5 seconds. Flexstation settings were photomultiplier tube (PMT) medium, six reads per well, pipette height 170, and a rate of injection of 3. Data were acquired using Softmax Pro version 5.4 (Molecular Devices). To analyze the data, area under the dye uptake curve was calculated in Softmax Pro version 5 using zero baseline data with a lag time of 50 seconds (50–300 seconds).
Results are expressed as means ± S.D. from the indicated number of experiments. For YO-PRO-1 dye uptake and intracellular calcium experiments, each independent experiment used triplicate wells, and the means of the replicates were collated and plotted. Technical replicates were used to ensure reliability of fluorescence values. […] Dose-response curves were plotted by a nonlinear regression fit with variable slope using GraphPad Prism software version 7. Half-maximal responses are expressed as EC50 values with 95% confidence intervals. These values were calculated from the collated data for each compound from three independent experiments. Statistical differences were determined by analysis of the data by one-way ANOVA followed by Dunnett’s multiple comparison test or Sidak’s multiple comparison test using GraphPad Prism version 7. P < 0.05 was the accepted minimum level of significance.

With `CC(=O)O[C@@H]1C[C@]2(O)[C@H](CC[C@]3(C)[C@@H](c4ccc(=O)oc4)CC[C@@]32O)[C@@]2(C)CC[C@H](O[C@@H]3O[C@H](CO)[C@@H](O)[C@H](O)[C@H]3O)C=C12` [Scilliroside], the “PAM effect on ATP dose-response curve” value is given as “no effect on the ATP dose-response curves”, the EC50 ratio was 1.3 and the “Maximum response (fold increase)” value worked out at 1.07 fold.

With `CC(C)=CCC[C@](C)(O)[C@H]1CC[C@]2(C)[C@@H]1[C@H](O)C[C@@H]1[C@@]3(C)CC[C@H](O[C@@H]4O[C@H](CO)[C@@H](O)[C@H](O)[C@H]4O)C(C)(C)[C@@H]3CC[C@]12C` [Ginsenoside-20(S)-Rh2, 20(S)-ginsenoside-Rh2], the EC50 ratio came to 1.8 and the “Maximum response (fold increase)” value was determined as 2.6 fold.

With `CC[C@H](CC[C@@H](C)[C@H]1CC[C@H]2[C@@H]3CC=C4C[C@@H](O[C@@H]5O[C@H](CO)[C@@H](O)[C@H](O)[C@H]5O)CC[C@]4(C)[C@H]3CC[C@]12C)C(C)C` [Daucosterol, daucosterol], the “PAM effect on ATP dose-response curve” value was “no effect on the ATP dose-response curves”, the EC50 ratio was 0.7 and the “Maximum response (fold increase)” value is 1.33 fold.

In the case of `CC1(C)[C@@H](O[C@H]2O[C@H](C(=O)O)[C@@H](O)[C@H](O)[C@H]2O[C@@H]2O[C@H](C(=O)O)[C@@H](O)[C@H](O)[C@H]2O)CC[C@]2(C)[C@H]3C(=O)C=C4[C@@H]5C[C@@](C)(C(=O)O)CC[C@]5(C)CC[C@@]4(C)[C@]3(C)CC[C@@H]12` [Glycyrrhizic acid, glycyrrhizic acid], the “ATP-induced YO-PRO-1 response in fixed-concentration screen” value (“ATP-induced YO-PRO-1 response” for short) is recorded as “no modulation of P2X7”.

For the compound `CC(C)=CCC[C@@](O)(CO[C@@H]1O[C@H](CO)[C@@H](O)[C@H](O)[C@H]1O)[C@H]1CC[C@]2(C)[C@@H]1CC[C@@H]1[C@@]3(C=O)CC[C@H](O[C@@H]4OC[C@H](O)[C@H](O[C@@H]5OC[C@@H](O)[C@H](O)[C@H]5O)[C@H]4O[C@@H]4O[C@@H](C)[C@H](O)[C@@H](O)[C@H]4O)C(C)(C)[C@@H]3CC[C@]12C` [Gypenoside XLIX, gypenoside XLIX], the “PAM effect on ATP dose-response curve” value is “did not reduce the EC50 value for ATP”; the “ATP-induced YO-PRO-1 response” value is “small increase in the ATP-induced YO-PRO-1 response, which was not statistically significant”; the EC50 ratio was found to be 0.9; the “Maximum response (fold increase)” value was found to be 1.9 fold.

Turning to `CC(C)=CCC[C@](C)(O[C@@H]1O[C@H](CO[C@@H]2O[C@H](CO)[C@@H](O)[C@H](O)[C@H]2O)[C@@H](O)[C@H](O)[C@H]1O)[C@H]1CC[C@]2(C)[C@@H]1[C@H](O)C[C@@H]1[C@@]3(C)CC[C@H](O[C@@H]4O[C@H](CO)[C@@H](O)[C@H](O)[C@H]4O[C@@H]4O[C@H](CO)[C@@H](O)[C@H](O)[C@H]4O)C(C)(C)[C@@H]3CC[C@]12C` [Ginsenoside-Rb1, ginsenoside-Rb1], the “PAM effect on ATP dose-response curve” value is “only type I PAM activity”; the EC50 ratio came out at 1.2; the “Maximum response (fold increase)” value was 1.9 fold and 1.96 fold.

`CC(C)=CCC[C@](C)(O)[C@H]1CC[C@]2(C)[C@@H]1[C@H](O)C[C@@H]1[C@@]3(C)CC[C@H](O[C@@H]4O[C@H](CO)[C@@H](O)[C@H](O)[C@H]4O[C@@H]4O[C@H](CO)[C@@H](O)[C@H](O)[C@H]4O)C(C)(C)[C@@H]3CC[C@]12C` (single isomer, unassigned) [ginsenoside-Rg3 (mixed isomers), ginsenoside-Rg3]: the “ATP-induced YO-PRO-1 response” value is recorded as “small increase in the ATP-induced YO-PRO-1 response, which was not statistically significant”.

On to `COC(=O)[C@@]1(C)CC[C@]2(C(=O)O)CC[C@]3(C)C(=CC[C@@H]4[C@@]5(C)C[C@H](O)[C@H](O[C@@H]6OC[C@@H](O[C@@H]7O[C@H](CO)[C@@H](O)[C@H](O)[C@H]7O)[C@H](O)[C@H]6O)[C@@](C)(CO)[C@@H]5CC[C@]43C)[C@@H]2C1` [Esculentoside A, esculentoside A], for which the “PAM effect on ATP dose-response curve” value was “inactive”, the “ATP-induced YO-PRO-1 response” value is recorded as “no modulation of P2X7”, the EC50 ratio was 0.8 and the “Maximum response (fold increase)” value came out at 0.94 fold.
